How the values were obtained:
[1] = molecular target: T1, C. armatus CYP51 (Coryphaenoides armatus, UniProt Z9AQN8BZD8); assay: Spectral titration of C. armatus CYP51 with sterol substrates (type I response); conditions: P450 2 µM; for Kd: read-out: Kd (apparent spectral dissociation constant, sterol substrate), titration step 0.25 µM; for Spin State Transition in the Heme Iron: sterol 0.25−3 µM, 22 °C
Procedure: Equal amounts of the HPCD solution were added to the reference cuvette to correct for the solvent-induced spectral perturbations, and the difference spectra were taken in the wavelength range of 350–500 nm. […] The apparent spectral dissociation constants (Kd) were calculated in GraphPad Prism software, as described, for human CYP51 [22].

[2] = molecular target: T1, C. armatus CYP51; assay: Reconstituted sterol 14α-demethylation, steady-state (Michaelis–Menten) kinetics; conditions: 0.25 µM P450, 1 µM CPR, 1 min reaction, 37 °C; for kcat: sterol 3.12−37.5 µM
Procedure: (§1) The samples were preincubated for 3 min at 37 °C in a shaking water bath, and the reaction was initiated by the addition of 100 μM NADPH and stopped by the extraction of sterols with ethyl acetate. The extracted sterols were dried, dissolved in 100 µL of methanol, and the products were analyzed by reversed-phase HPLC equipped with a β-RAM detector (INUS Systems) using a Nova-Pak 3.9 mm × 150 mm (4 μm) octadecylsilane (C18) HPLC column. The products were separated with an isocratic mobile phase composed of acetonitrile and methanol (4:1 (v/v)) at a flow rate of 0.75 mL/min [9]. Michaelis–Menten parameters were calculated using GraphPad Prism. The kcat and Km values for each reaction were determined by fitting the data to a Michaelis–Menten hyperbola, with the reaction rates (nmol product formed/nmol P450/min) being plotted versus total substrate concentration.

[3] = molecular target: T1, C. armatus CYP51; assay: Stabilization of C. armatus CYP51 by TMAO (CO-binding spectra after overnight storage)
Procedure: Absorption spectra (270–700 nm) were recorded at 22 °C using a dual-beam Shimadzu UV-2600i spectrophotometer and UVProbe2.71 software. The P450 concentration was determined from the Soret band absorbance in the absolute spectrum, with the extinction coefficient 117 mM^−1 cm^−1 for the low-spin ferric form or 91 mM^−1 cm^−1 for the reduced (ferrous) carbon monoxide (CO) complex in the difference spectra. The spin state of the P450 samples was estimated from the absolute spectra using the ratio (ΔA393–470/ΔA417–470), with values of 0.35 and 2.0 corresponding to 100% low- and 100% high-spin iron, respectively.
After data collection the crystals were dissolved in phosphate buffered saline (PBS, Gibco, Billings, MT, USA). UV-visible absolute absorption spectra (270–700 nm) were recorded at room temperature using a NanoVue,4282 single beam spectrophotometer (CE Healthcare, Cardiff, UK) (Figure S4A). CO-binding difference absorption spectra (400–500 nm) were recorded using a dual-beam Shimadzu UV-2600i spectrophotometer as follows. The CO gas was bubbled through the protein solution, which was then divided into two cuvettes serving as a blank and standard, respectively. The baseline was taken, and a few crystals of […] were added to the sample cuvette (Figure S4B). […]

[4] = molecular target: T1, C. armatus CYP51
Procedure: as §1

[5] = system: human CYP51; set-up: method as in PMID 27313059; conditions: cited from earlier work
[6] = molecular target: T1, C. armatus CYP51; assay: Spectral titration with azole-based ligands (type II response)
Procedure: Equal amounts of the HPCD solution were added to the reference cuvette to correct for the solvent-induced spectral perturbations, and the difference spectra were taken in the wavelength range of 350–500 nm. […] Titrations with azole-based compounds were carried out at 0.5 µM P450 concentration in 5 cm optical path length cuvettes. Aliquots of 0.1 mM compounds dissolved in dimethyl sulfoxide (DMSO) were added to the sample cuvette, with each titration step being 0.1 µM. At each step, the corresponding volume of DMSO was added to the reference cuvette. The apparent spectral dissociation constants (Kd) were calculated in GraphPad Prism software, as described, for human CYP51 [22].

[7] = molecular target: human CYP51; set-up: method as in PMID 27313059; conditions: read-out: apparent dissociation constant (Kd), azole ligand; cited from earlier work
[8] = molecular target: T1, C. armatus CYP51; assay: Inhibition of reconstituted lanosterol 14α-demethylation, 1 h reaction; conditions: enzyme/inhibitor/substrate 1:50:50, 60 min
Procedure: as §1

[9] = read-out: apparent dissociation constant (Kd), azole ligand, P450 0.5 µM, titration step 0.1 µM

T1 sequence (Z9AQN8BZD8 6-449 limits assumed): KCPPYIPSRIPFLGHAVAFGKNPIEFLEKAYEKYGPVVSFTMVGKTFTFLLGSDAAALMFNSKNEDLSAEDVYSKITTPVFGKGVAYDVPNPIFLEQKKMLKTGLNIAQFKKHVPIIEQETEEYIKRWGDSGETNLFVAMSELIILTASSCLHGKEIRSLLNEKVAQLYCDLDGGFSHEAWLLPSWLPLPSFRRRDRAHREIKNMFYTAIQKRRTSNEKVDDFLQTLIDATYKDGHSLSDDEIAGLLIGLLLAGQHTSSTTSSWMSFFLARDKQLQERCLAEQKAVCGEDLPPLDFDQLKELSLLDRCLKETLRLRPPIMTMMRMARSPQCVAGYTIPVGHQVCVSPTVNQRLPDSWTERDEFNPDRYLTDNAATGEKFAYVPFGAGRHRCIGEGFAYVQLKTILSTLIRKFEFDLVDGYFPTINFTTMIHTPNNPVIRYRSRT

For `C=C(CC[C@@H](C)C1CC[C@@]2(C)C3=C(CC[C@]12C)[C@@]1(C)CC[C@H](O)C(C)(C)C1CC3)C(C)C` (stereo partly shown), the Kd [1] was 1.02 ± 0.04 µM, the “Spin State Transition in the Heme Iron” value [1] was 27% and the Km [2] was 13 ± 0.9 µM. It also gave a kcat [2] of 1.03 ± 0.0383 s⁻¹.

With `CC(C)=CCC[C@@H](C)[C@H]1CC[C@@]2(C)C3=C(CC[C@]12C)[C@@]1(C)CC[C@H](O)C(C)(C)[C@@H]1CC3` [Lanosterol] the Kd [1] was 0.77 ± 0.04 µM, the “Spin State Transition in the Heme Iron” value [1] was 22% and the Km [2] was 8.1 ± 1.1 µM. It also gave a kcat [2] of 0.797 ± 0.0317 s⁻¹.

For `C=C(CC[C@@H](C)[C@H]1CC[C@@]2(C)C3=C(CC[C@]12C)[C@@]1(C)CC[C@H](O)[C@@H](C)[C@@H]1CC3)C(C)C` [Obtusifoliol, obtusifoliol], the Kd [1] was 0.56 ± 0.03 µM, the “Spin State Transition in the Heme Iron” value [1] was 13% and the Km [2] was 7.9 ± 0.6 µM. It also gave a kcat [2] of 0.865 ± 0.03 s⁻¹.

For `C[N+](C)(C)[O-]` [TMAO, Trimethylamine oxide], the “spectral response in the C. armatus CYP51 heme iron (in words)” value [3] was “does not cause any spectral response” and the “P450 recovery after overnight incubation (CO-binding spectra)” value ([3]; 10 mM TMAO, overnight storage at 4 °C in PBS) was 90%.

In the case of `O=C(N[C@@H](Cn1ccnc1)c1ccc(-c2ccc(F)cc2)cc1F)c1ccc(-c2nnc(-c3ccccc3)o2)cc1` [VFV, (R)-N-(1-(3,4′-difluorobiphenyl-4-yl)-2-(1H-imidazol-1-yl)ethyl)-4-(5-phenyl-1,3,4-oxadiazol-2-yl)benzamide], the “inhibition of CYP51 activity” value [4] is listed as 93%, the “inhibition of CYP51 activity” value ([5]; human CYP51, enzyme/inhibitor/substrate 1:50:50, 60 min) is listed as 64% and the Kd [6] is listed as 0.02 µM. The Kd [7] was 0.09 µM.

In the case of `N#Cc1ccc(COc2ccc(C#Cc3ccc(C(F)(F)[C@](O)(Cn4cnnn4)c4ccc(F)cc4F)nc3)cc2)cc1` [VT-1598], the “inhibitory effect on the C. armatus CYP51 activity (in words)” value (“inhibitory effect” for short) [8] is reported as “did not have any inhibitory effect”.

In the case of `C[C@@H](c1nc(-c2ccc(C#N)cc2)cs1)[C@](O)(Cn1cncn1)c1cc(F)ccc1F` [isavuconazole], the “inhibitory effect” value [8] is reported as “did not have any inhibitory effect”.

In the case of `CCC(C)n1ncn(-c2ccc(N3CCN(c4ccc(OCC5COC(Cn6cncn6)(c6ccc(Cl)cc6Cl)O5)cc4)CC3)cc2)c1=O` (stereo not shown) [itraconazole], the “inhibitory effect” value [8] is listed as “did not have any inhibitory effect”, the Kd [6, 9] is listed as 0.62 µM and the Kd [7] is listed as 1.29 µM.

For `CC(=O)N1CCN(c2ccc(OCC3COC(Cn4ccnc4)(c4ccc(Cl)cc4Cl)O3)cc2)CC1` (stereo not shown) [ketoconazole], the “lanosterol converted in presence of inhibitor” value ([5]; human CYP51, 50-fold molar excess of inhibitor, 1 h reaction) is given as 100%, the Kd [6, 9] is given as 0.01 µM and the Kd [7] is given as 0.07 µM.

For `O[C@@](Cn1cnnn1)(c1ccc(F)cc1F)C(F)(F)c1ccc(-c2ccc(OCC(F)(F)F)cc2)cn1` [oteseconazole], the “inhibitory effect” value [8] was “did not have any inhibitory effect”.

For `CC[C@@H]([C@H](C)O)n1ncn(-c2ccc(N3CCN(c4ccc(OC[C@@H]5CO[C@@](Cn6cncn6)(c6ccc(F)cc6F)C5)cc4)CC3)cc2)c1=O` [posaconazole], the “inhibitory effect” value [8] was “did not have any inhibitory effect”.

For `C[C@@H](c1ncncc1F)[C@](O)(Cn1cncn1)c1ccc(F)cc1F` [voriconazole], the “inhibitory effect” value [8] is given as “did not have any inhibitory effect”, the Kd [6, 9] is given as 0.61 µM and the Kd [7] is given as 2.53 µM.

From paper PMC12192976, “Unique Structural Features Relate to Evolutionary Adaptation of Cytochrome P450 in the Abyssal Zone” (International Journal of Molecular Sciences, 2025)
